Test results: patent US7884215B2, “2-substituted benzimidazoles” (priority 2005, dated 2011)

System: Respiratory Syncytial Virus
Assay: microbe, parasite or virus in culture
Assay type: cell-based
Conditions: human respiratory syncytial virus, 168 h; antiviral activity; protection against cytopathology caused by RSV in HeLa cells, MTT read-out seven days after infection
Description: The percent protection against cytopathology caused by viruses (antiviral activity or EC50) achieved by tested compounds and their cytotoxicity (CC50) are both calculated from dose-response curves.
Automated tetrazolium-based colorimetric assays were used for determination of EC50 and CC50 of test compounds. […] Subsequently, stock solutions (7.8× final test concentration) of compounds were added in 45 μl volumes to a series of triplicate wells so as to allow simultaneous evaluation of their effects on virus- and mock-infected cells. Five five-fold dilutions were made directly in the microtiter trays using a robot system. Untreated virus controls, and HeLa cell controls were included in each test. Approximately 100 TCID50 of Respiratory Syncytial Virus was added to two of the three rows in a volume of 50 μl. The same volume of medium was added to the third row to measure the cytotoxicity of the compounds at the same concentrations as those used to measure the antiviral activity. […] Finally, the absorbances were read in an eight-channel computer-controlled photometer (Multiskan MCC, Flow Laboratories) at two wavelengths (540 and 690 nm). The absorbance measured at 690 nm was automatically subtracted from the absorbance at 540 nm, so as to eliminate the effects of non-specific absorption.

Cc1ccc(CCCO)c(NCc2ccc3nc(C(N)=O)n(Cc4nc(C)ccc4O)c3c2)c1 [d-10]
EC50: 631 nM
